Common to all, as to assay: c-ponatinib pulldown LC-MS/MS
What all share (type): binding

The target in one assay is HSPA8 (Homo sapiens, UniProt P11142). The method in brief:
(§1)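 Spectral counts and search-engine scores from LC-MS/MS of tryptic eluates gave drug-protein specificity P-values. Eluates came from duplicate pulldowns of 10 mg lysate on 25 nmol immobilized c-ponatinib. Competition was the ratio of median counts with versus without free compound.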

For a further assay, the target named is T1, MAPK12 (Homo sapiens, UniProt P53778).
T1 sequence (P53778 1-367): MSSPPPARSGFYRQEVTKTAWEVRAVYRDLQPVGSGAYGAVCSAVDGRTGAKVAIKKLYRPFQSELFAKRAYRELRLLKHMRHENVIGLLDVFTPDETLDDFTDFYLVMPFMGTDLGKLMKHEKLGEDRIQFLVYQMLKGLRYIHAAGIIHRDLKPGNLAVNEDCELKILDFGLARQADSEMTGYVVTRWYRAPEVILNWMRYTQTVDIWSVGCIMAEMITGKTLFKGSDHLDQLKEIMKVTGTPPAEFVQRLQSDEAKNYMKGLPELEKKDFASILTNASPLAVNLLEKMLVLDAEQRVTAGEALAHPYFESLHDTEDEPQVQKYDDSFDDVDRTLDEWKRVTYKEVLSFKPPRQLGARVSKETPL
The method in brief:
as §1

For another assay, the target named is CDK16 (Homo sapiens, UniProt Q00536). The method in brief:
as §1

The target of the next assay is MINK1 (Homo sapiens, UniProt Q8N4C8). A digest of the protocol:
as §1

The target in the next assay is MAPK11 (Homo sapiens, UniProt Q15759). The method in brief: as §1
Chain of MAPK11 (Q15759 whole entry): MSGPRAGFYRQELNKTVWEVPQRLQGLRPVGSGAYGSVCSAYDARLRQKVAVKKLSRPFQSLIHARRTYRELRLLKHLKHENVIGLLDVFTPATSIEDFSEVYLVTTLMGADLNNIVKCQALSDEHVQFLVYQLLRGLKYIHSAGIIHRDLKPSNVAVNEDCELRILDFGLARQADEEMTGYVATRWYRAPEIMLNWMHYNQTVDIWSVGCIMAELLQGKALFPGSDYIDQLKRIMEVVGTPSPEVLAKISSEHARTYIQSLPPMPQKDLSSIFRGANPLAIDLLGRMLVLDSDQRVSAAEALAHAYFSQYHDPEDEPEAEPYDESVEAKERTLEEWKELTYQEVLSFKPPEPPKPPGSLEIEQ

Chain of MINK1 (Q8N4C8 whole entry): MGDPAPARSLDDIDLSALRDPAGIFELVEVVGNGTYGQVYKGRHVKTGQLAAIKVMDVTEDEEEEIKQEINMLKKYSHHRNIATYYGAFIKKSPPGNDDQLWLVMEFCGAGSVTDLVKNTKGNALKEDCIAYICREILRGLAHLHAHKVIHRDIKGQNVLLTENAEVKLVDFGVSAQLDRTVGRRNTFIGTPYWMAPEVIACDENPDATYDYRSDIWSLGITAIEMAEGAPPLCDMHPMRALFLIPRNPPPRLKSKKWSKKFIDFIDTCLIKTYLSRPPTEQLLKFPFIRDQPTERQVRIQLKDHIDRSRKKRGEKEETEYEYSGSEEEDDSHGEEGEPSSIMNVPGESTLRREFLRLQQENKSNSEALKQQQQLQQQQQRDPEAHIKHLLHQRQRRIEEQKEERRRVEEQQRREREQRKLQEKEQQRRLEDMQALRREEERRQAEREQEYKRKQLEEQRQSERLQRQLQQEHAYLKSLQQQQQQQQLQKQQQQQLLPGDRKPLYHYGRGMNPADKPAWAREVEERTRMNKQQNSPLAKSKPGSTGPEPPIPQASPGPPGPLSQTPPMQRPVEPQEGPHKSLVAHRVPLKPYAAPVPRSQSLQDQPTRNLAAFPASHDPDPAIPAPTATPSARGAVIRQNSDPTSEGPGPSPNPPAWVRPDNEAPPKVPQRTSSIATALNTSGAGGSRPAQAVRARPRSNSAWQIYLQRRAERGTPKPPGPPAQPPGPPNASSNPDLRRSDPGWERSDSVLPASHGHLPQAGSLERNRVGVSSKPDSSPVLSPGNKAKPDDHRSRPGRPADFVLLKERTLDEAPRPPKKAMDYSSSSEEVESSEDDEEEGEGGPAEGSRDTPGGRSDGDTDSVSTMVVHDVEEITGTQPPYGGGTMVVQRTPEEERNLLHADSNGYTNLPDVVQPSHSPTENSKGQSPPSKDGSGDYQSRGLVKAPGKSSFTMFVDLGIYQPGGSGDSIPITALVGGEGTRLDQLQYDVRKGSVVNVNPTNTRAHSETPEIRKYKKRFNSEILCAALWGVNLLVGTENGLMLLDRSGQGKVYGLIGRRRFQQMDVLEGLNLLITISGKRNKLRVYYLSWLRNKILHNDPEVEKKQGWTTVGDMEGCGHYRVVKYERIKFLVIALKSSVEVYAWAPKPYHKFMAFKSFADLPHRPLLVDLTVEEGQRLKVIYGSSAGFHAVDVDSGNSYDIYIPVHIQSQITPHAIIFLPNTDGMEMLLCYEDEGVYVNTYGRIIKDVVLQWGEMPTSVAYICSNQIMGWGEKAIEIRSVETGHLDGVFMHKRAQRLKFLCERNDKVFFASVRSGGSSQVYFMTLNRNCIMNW
Chain of CDK16 (Q00536 whole entry): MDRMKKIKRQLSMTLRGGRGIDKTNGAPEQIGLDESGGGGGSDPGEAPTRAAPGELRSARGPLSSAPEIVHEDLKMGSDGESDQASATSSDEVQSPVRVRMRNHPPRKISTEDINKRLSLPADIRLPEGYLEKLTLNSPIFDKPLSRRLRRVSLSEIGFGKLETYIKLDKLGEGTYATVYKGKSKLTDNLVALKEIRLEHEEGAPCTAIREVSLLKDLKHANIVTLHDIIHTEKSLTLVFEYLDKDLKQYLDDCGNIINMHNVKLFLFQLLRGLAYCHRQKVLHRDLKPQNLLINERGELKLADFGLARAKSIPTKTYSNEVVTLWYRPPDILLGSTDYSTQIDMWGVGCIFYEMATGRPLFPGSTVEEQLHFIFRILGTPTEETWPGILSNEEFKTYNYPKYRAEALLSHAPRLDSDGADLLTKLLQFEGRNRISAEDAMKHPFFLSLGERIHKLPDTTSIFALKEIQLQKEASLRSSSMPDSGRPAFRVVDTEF
Chain of HSPA8 (P11142 whole entry): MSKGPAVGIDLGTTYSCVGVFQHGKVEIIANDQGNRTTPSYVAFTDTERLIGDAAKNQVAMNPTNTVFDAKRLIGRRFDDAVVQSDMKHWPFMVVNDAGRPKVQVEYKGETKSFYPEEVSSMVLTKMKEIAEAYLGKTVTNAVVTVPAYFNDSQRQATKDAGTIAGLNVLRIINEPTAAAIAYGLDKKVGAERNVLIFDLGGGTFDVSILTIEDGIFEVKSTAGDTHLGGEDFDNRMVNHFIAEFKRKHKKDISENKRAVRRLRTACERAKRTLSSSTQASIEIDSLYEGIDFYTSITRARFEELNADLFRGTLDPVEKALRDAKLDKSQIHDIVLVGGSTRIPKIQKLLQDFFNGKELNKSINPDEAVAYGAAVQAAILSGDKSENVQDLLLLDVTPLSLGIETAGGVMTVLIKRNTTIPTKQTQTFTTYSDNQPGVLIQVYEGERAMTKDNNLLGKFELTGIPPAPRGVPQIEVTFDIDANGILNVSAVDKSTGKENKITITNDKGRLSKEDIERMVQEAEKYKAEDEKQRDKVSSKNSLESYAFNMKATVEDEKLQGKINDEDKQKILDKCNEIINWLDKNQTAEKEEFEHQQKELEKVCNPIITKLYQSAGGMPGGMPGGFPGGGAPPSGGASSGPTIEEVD

With `Cc1ccc(C(=O)Nc2ccc(CN3CCN(CCCN)CC3)c(C(F)(F)F)c2)cc1C#Cc1cnc2cccnn12` [c-ponatinib], the “Av. SC comp.” value on HSPA8 (+ free ponatinib) turned out to be 17.25; at MAPK12 (+ free ponatinib), 3.75; on CDK16 (+ free ponatinib), 1.25; on MINK1 (+ free ponatinib), 0; at MAPK11 (+ free ponatinib) it was 0. Also, the “Total SC comp.” value at HSPA8 (+ free ponatinib) was found to be 69; at MAPK12 (+ free ponatinib) it was 15; at CDK16 (+ free ponatinib), 5; on MINK1 (+ free ponatinib), 0; on MAPK11 (+ free ponatinib), 0. In addition, the “Av. SC” value turned out to be 29.25 at HSPA8 (no competitor); 10.75 on MAPK12 (no competitor); 10.75 on CDK16 (no competitor); 4 on MINK1 (no competitor); 3 on MAPK11 (no competitor). In addition, the “Total SC” value on HSPA8 (no competitor) is listed as 117; at MAPK12 (no competitor), 43; on CDK16 (no competitor) it was 43; on MINK1 (no competitor), 16; at MAPK11 (no competitor), 12.

These data come from PMC4669708 (Cell Death & Disease, 2015).
